Laboratory results as given in patent US20230192686A1, “1H-PYRROLO[2,3-B]PYRIDINES AND PREPARATION AND USES THEREOF” (BioSplice Therapeutics, Inc., priority 2021, published 2023).

Each molecule was assayed against recombinant DYRK1A kinase (Homo sapiens, UniProt Q13627) (assay: DYRK1A kinase assay (Ser/Thr 18 peptide Z-lyte FRET)). Conditions: DYRK1A kinase activity; 15 μM ATP, 4 μM Ser/Thr peptide 18, one hour at room temperature.
Type: biochemical
Description: Representative compounds were screened using the assay procedure for DYRK1A kinase activity as described below.
Each compound was dissolved in DMSO as a 10 mM stock and used to prepare compound source plates. Serial dilution (1:3, 11-point dose-response curves from 10 μM to 0.00016 μM) and compound transfer was performed using the ECHO 550 (Labcyte, Sunnyvale, Calif.) into 1536-well black-walled round bottom plates (Corning).
The DYRK1A kinase assay was run using the Ser/Thr 18 peptide Z-lyte assay kit according to manufacturer's instructions (Life Technologies—a Division of Thermo-Fisher). This is a non-radioactive assay using fluorescence resonance energy transfer (FRET) between coumarin and fluorescein to detect kinase activity which is represented as a ratio of coumarin emission/fluorescein emission.
Briefly, recombinant DYRK1A kinase, ATP and Ser/Thr peptide 18 were prepared in 1× Kinase buffer to final concentrations of 0.25 μg/mL, 15 μM, and 4 μM respectively. The mixture was allowed to incubate with the representative compounds for one hour at room temperature. All reactions were performed in duplicate. Unphosphorylated (“0% Control”) and phosphorylated (“100% control”) forms of Ser/Thr 18 served as control reactions. Additionally, an 11-point dose-response curve of Staurosporine (1 uM top) was run to serve as a positive compound control.
After incubation, Development Reagent A was diluted in Development Buffer then added to the reaction and allowed to further incubate for one hour at room temperature. The plate was read at Ex 400 Em 455 to detect the coumarin signal and Ex 400 Em 520 to measure the signal (EnVision Multilabel Plate Reader, PerkinElmer).
The Emission ratio (Em) was calculated as a ratio of the coumarin (C) emission signal (at 445 nm)/Fluorescein (F) emission signal (at 520 nm). The percent phosphorylation was then calculated using the following formula: [1−((Em ratio×F100%)−C100%)/((C0%−C100%)+(Em ratio×(F100%−F0%)))]. Dose-response curves were generated, and inhibitory concentration (IC50) values were calculated using non-linear regression curve fit in the Dotmatics' Studies Software (Bishops Stortford, UK).

Q: `O=C(NC1CCN(Cc2ccccn2)CC1)c1cnn2ccc(-c3c[nH]c4ncccc34)cc12` [Compound 51, N-(1-(Pyridin-2-ylmethyl)piperidin-4-yl)-5-(1H-pyrrolo[2,3-b]pyridin-3-yl)pyrazolo[1,5-a]pyridine-3-carboxamide] was tested. Which EC50 did it give?
A: 1 nM

Q: `O=C(Nc1cccnc1)c1cnn2ccc(-c3c[nH]c4ncccc34)cc12` [Compound 52, N-(Pyridin-3-yl)-5-(1H-pyrrolo[2,3-b]pyridin-3-yl)pyrazolo[1,5-a]pyridine-3-carboxamide] was tested. Which EC50 did it give?
A: 2 nM

Q: Which EC50 does the source give for `O=C(c1cnn2ccc(-c3c[nH]c4ncccc34)cc12)N1CCCCC1` [Compound 53, (5-(1H-Pyrrolo[2,3-b]pyridin-3-yl)pyrazolo[1,5-a]pyridin-3-yl) (piperidin-1-yl)methanone] here?
A: 7 nM

Q: `CN1CCN(C2CCN(C(=O)c3cnn4ccc(-c5c[nH]c6ncccc56)cc34)CC2)CC1` [Compound 54, (5-(1H-Pyrrolo[2,3-b]pyridin-3-yl)pyrazolo[1,5-a]pyridin-3-yl)(4-(4-methylpiperazin-1-yl)piperidin-1-yl)methanone] was tested. Which EC50 did it give?
A: 18 nM

Q: `CN1CCN(C(=O)c2cnn3ccc(-c4c[nH]c5ncccc45)cc23)CC1` [Compound 55, (5-(1H-Pyrrolo[2,3-b]pyridin-3-yl)pyrazolo[1,5-a]pyridin-3-yl)(4-methylpiperazin-1-yl)methanone] was tested. Which EC50 did it give?
A: 4 nM

Q: For `O=C(c1cnn2ccc(-c3c[nH]c4ncccc34)cc12)N1CCN(C2CC2)CC1` [Compound 56, (5-(1H-Pyrrolo[2,3-b]pyridin-3-yl)pyrazolo[1,5-a]pyridin-3-yl)(4-cyclopropylpiperazin-1-yl)methanone], which EC50 is on record?
A: 7 nM

Q: How did the EC50 turn out when `O=C(c1cnn2ccc(-c3c[nH]c4ncccc34)cc12)N1CCNC2(CC2)C1` [Compound 57, (5-(1H-Pyrrolo[2,3-b]pyridin-3-yl)pyrazolo[1,5-a]pyridin-3-yl)(4,7-diazaspiro[2.5]octan-7-yl)methanone] was run?
A: 3 nM

Q: For `CN1C2CCC1CN(C(=O)c1cnn3ccc(-c4c[nH]c5ncccc45)cc13)C2` [Compound 58, (5-(1H-Pyrrolo[2,3-b]pyridin-3-yl)pyrazolo[1,5-a]pyridin-3-yl)(8-methyl-3,8-diazabicyclo[3.2.1]octan-3-yl)methanone], which EC50 is on record?
A: 12 nM

Q: With `CN1CC2CCC(C1)N2C(=O)c1cnn2ccc(-c3c[nH]c4ncccc34)cc12` [Compound 59, (5-(1H-Pyrrolo[2,3-b]pyridin-3-yl)pyrazolo[1,5-a]pyridin-3-yl)(3-methyl-3,8-diazabicyclo[3.2.1]octan-8-yl)methanone] as the molecule, how does the EC50 read?
A: 81 nM

Q: `O=C(c1cnn2ccc(-c3c[nH]c4ncccc34)cc12)N1CCOCC1` [Compound 60, (5-(1H-Pyrrolo[2,3-b]pyridin-3-yl)pyrazolo[1,5-a]pyridin-3-yl) (morpholino)methanone] was tested. Which EC50 did it give?
A: 6 nM

Q: Which EC50 does the source give for `O=C(c1cnn2ccc(-c3c[nH]c4ncccc34)cc12)N1CC2(CNC2)C1` [Compound 61, (5-(1H-Pyrrolo[2,3-b]pyridin-3-yl)pyrazolo[1,5-a]pyridin-3-yl)(2,6-diazaspiro[3.3]heptan-2-yl)methanone] here?
A: 4 nM

Q: `CN1CC2(C1)CN(C(=O)c1cnn3ccc(-c4c[nH]c5ncccc45)cc13)C2` [Compound 62, (5-(1H-Pyrrolo[2,3-b]pyridin-3-yl)pyrazolo[1,5-a]pyridin-3-yl)(6-methyl-2,6-diazaspiro[3.3]heptan-2-yl)methanone] was tested. Which EC50 did it give?
A: 5 nM

Q: How did the EC50 turn out when `O=C(c1cnn2ccc(-c3c[nH]c4ncccc34)cc12)N1CC2CNCC2C1` (stereo not shown) [Compound 63, (5-(1H-Pyrrolo[2,3-b]pyridin-3-yl)pyrazolo[1,5-a]pyridin-3-yl) (hexahydropyrrolo[3,4-c]pyrrol-2(1H)-yl)methanone] was run?
A: 5 nM

Q: With `CN1CC2CN(C(=O)c3cnn4ccc(-c5c[nH]c6ncccc56)cc34)CC2C1` (stereo not shown) [Compound 64, (5-(1H-Pyrrolo[2,3-b]pyridin-3-yl)pyrazolo[1,5-a]pyridin-3-yl)(5-methylhexahydropyrrolo[3,4-c]pyrrol-2(1H)-yl)methanone] as the molecule, how does the EC50 read?
A: 6 nM

Q: For `c1cnc2[nH]cc(-c3ccn4nccc4n3)c2c1` [Compound 65, 5-(1H-Pyrrolo[2,3-b]pyridin-3-yl)pyrazolo[1,5-a]pyrimidine], which EC50 is on record?
A: 7 nM

Q: For `COc1ccc(-c2c[nH]c3ncccc23)cn1` [Compound 67, 3-(6-Methoxypyridin-3-yl)-1H-pyrrolo[2,3-b]pyridine], which EC50 is on record?
A: 19 nM

Q: For `COc1ccc(-c2c[nH]c3ncccc23)nn1` [Compound 69, 3-(6-Methoxypyridazin-3-yl)-1H-pyrrolo[2,3-b]pyridine], which EC50 is on record?
A: 73 nM

Q: Which EC50 does the source give for `CN1CCC(Nc2cncc(-c3c[nH]c4ncccc34)n2)CC1` [Compound 70, N-(1-Methylpiperidin-4-yl)-6-(1H-pyrrolo[2,3-b]pyridin-3-yl)pyrazin-2-amine] here?
A: 13 nM

Q: For `CC1(C)COc2ccc(-c3c[nH]c4ncccc34)cc21` [Compound 72, 3-(3,3-Dimethyl-2,3-dihydrobenzofuran-5-yl)-1H-pyrrolo[2,3-b] pyridine], which EC50 is on record?
A: 91 nM

Q: How did the EC50 turn out when `CN1Cc2cc(-c3c[nH]c4ncccc34)ccc2C1=O` [Compound 76, 2-Methyl-5-(1H-pyrrolo[2,3-b]pyridin-3-yl)isoindolin-1-one] was run?
A: 31 nM

Q: `O=C1NC2(CCCCC2)c2cc(-c3c[nH]c4ncccc34)ccc21` [Compound 78, 6′-(1H-Pyrrolo[2,3-b]pyridin-3-yl)spiro[cyclohexane-1,1′-isoindolin]-3′-one] was tested. Which EC50 did it give?
A: 6 nM

Q: `c1cnc2[nH]cc(-c3ccc4c(c3)CCCO4)c2c1` [Compound 79, 3-(Chroman-6-yl)-1H-pyrrolo[2,3-b]pyridine] was tested. Which EC50 did it give?
A: 24 nM

Q: For `CC1(C)CC(=O)c2ccc(-c3c[nH]c4ncccc34)cc2O1` [Compound 80, 2,2-Dimethyl-7-(1H-pyrrolo[2,3-b]pyridin-3-yl)chroman-4-one], which EC50 is on record?
A: 31 nM

Q: `CC1(C)CNC(=O)c2ccc(-c3c[nH]c4ncccc34)cc21` [Compound 82, 4,4-Dimethyl-6-(1H-pyrrolo[2,3-b]pyridin-3-yl)-3,4-dihydroisoquinolin-1(2H)-one] was tested. Which EC50 did it give?
A: 6 nM

Q: With `O=C1CC2(CCNCC2)Oc2cc(-c3c[nH]c4ncccc34)ccc21` [Compound 83, 7-(1H-Pyrrolo[2,3-b]pyridin-3-yl)spiro[chromane-2,4′-piperidin]-4-one] as the molecule, how does the EC50 read?
A: 29 nM

Q: How did the EC50 turn out when `O=C1NCCOc2cc(-c3c[nH]c4ncccc34)ccc21` [Compound 84, 8-(1H-Pyrrolo[2,3-b]pyridin-3-yl)-3,4-dihydrobenzo[f][1,4]oxazepin-5(2H)-one] was run?
A: 3 nM

Q: Which EC50 does the source give for `CN1CCOc2cc(-c3c[nH]c4ncccc34)ccc2C1=O` [Compound 85, 4-Methyl-8-(1H-pyrrolo[2,3-b]pyridin-3-yl)-3,4-dihydrobenzo[f] [1,4]oxazepin-5(2H)-one] here?
A: 25 nM

Q: With `O=C1NCCOc2c1ccc(-c1c[nH]c3ncccc13)c2F` [Compound 86, 9-Fluoro-8-(1H-pyrrolo[2,3-b]pyridin-3-yl)-3,4-dihydrobenzo[f] [1,4]oxazepin-5(2H)-one] as the molecule, how does the EC50 read?
A: 7 nM

Q: `c1cnc2ccc(-c3c[nH]c4ncccc34)cc2c1` [Compound 87, 6-(1H-Pyrrolo[2,3-b]pyridin-3-yl)quinoline] was tested. Which EC50 did it give?
A: 2 nM

Q: With `O=C(c1ccnc2ccc(-c3c[nH]c4ncccc34)cc12)N1CCNC2(CC2)C1` [Compound 88, (6-(1H-Pyrrolo[2,3-b]pyridin-3-yl)quinolin-4-yl)(4,7-diazaspiro[2.5]octan-7-yl)methanone] as the molecule, how does the EC50 read?
A: 3 nM

Q: With `CN1CCC(NC(=O)c2ccnc3ccc(-c4c[nH]c5ncccc45)cc23)CC1` [Compound 89, N-(1-Methylpiperidin-4-yl)-6-(1H-pyrrolo[2,3-b]pyridin-3-yl) quinoline-4-carboxamide] as the molecule, how does the EC50 read?
A: 1 nM

Q: With `c1cnc2[nH]cc(-c3ccc4nccnc4c3)c2c1` [Compound 90, 6-(1H-Pyrrolo[2,3-b]pyridin-3-yl)quinoxaline] as the molecule, how does the EC50 read?
A: 3 nM

Q: With `CN1CCC(Oc2cnc3ccc(-c4c[nH]c5ncccc45)cc3n2)CC1` [Compound 91, 2-((1-Methylpiperidin-4-yl)oxy)-7-(1H-pyrrolo[2,3-b]pyridin-3-yl) quinoxaline] as the molecule, how does the EC50 read?
A: 3 nM

Q: How did the EC50 turn out when `CN1CCN(c2ncnc3ccc(-c4c[nH]c5ncccc45)cc23)CC1` [Compound 95, 4-(4-Methylpiperazin-1-yl)-6-(1H-pyrrolo[2,3-b]pyridin-3-yl) quinazoline] was run?
A: 2 nM

Q: Which EC50 does the source give for `c1cnc2[nH]cc(-c3ccc4ncnc(N5CCNC6(CC6)C5)c4c3)c2c1` [Compound 96, 6-(1H-Pyrrolo[2,3-b]pyridin-3-yl)-4-(4,7-diazaspiro[2.5]octan-7-yl) quinazoline] here?
A: 1 nM

Q: With `c1cnc2[nH]cc(-c3ccc4ncnc(N5CCNC6(CCC6)C5)c4c3)c2c1` [Compound 97, 6-(1H-Pyrrolo[2,3-b]pyridin-3-yl)-4-(5,8-diazaspiro[3.5]nonan-8-yl) quinazoline] as the molecule, how does the EC50 read?
A: 2 nM

Q: How did the EC50 turn out when `c1cnc2[nH]cc(-c3ccc4ncnc(N5CCNC6(CCCC6)C5)c4c3)c2c1` [Compound 98, 9-(6-(1H-Pyrrolo[2,3-b]pyridin-3-yl)quinazolin-4-yl)-6,9-diazaspiro [4.5]decane] was run?
A: 2 nM
